Source: PMC10459044, “Anticholinesterase and Serotoninergic Evaluation of Benzimidazole–Carboxamides as Potential Multifunctional Agents for the Treatment of Alzheimer’s Disease” (Pharmaceutics, 2023)
“Also recorded” adds a separate entry of the source. Read-outs that look alike come from different tables or passages of the source.

What was measured:
human AChE = target: T1, human AChE (Homo sapiens, UniProt P22303); assay: biochemical; type: biochemical; conditions: for Type of Inhibition / thermodynamic cooperativity factor α: human AChE; for Type of Inhibition: Lineweaver–Burk plots; for thermodynamic cooperativity factor α: mixed inhibition model
T1 construct: human erythrocyte AChE (Biomed, Auckland, New Zealand); purchased Biomed, Auckland, New Zealand; host or cells: human erythrocytes (natural source)
T1 sequence (P22303 32-617 isoform P22303-2 limits assumed): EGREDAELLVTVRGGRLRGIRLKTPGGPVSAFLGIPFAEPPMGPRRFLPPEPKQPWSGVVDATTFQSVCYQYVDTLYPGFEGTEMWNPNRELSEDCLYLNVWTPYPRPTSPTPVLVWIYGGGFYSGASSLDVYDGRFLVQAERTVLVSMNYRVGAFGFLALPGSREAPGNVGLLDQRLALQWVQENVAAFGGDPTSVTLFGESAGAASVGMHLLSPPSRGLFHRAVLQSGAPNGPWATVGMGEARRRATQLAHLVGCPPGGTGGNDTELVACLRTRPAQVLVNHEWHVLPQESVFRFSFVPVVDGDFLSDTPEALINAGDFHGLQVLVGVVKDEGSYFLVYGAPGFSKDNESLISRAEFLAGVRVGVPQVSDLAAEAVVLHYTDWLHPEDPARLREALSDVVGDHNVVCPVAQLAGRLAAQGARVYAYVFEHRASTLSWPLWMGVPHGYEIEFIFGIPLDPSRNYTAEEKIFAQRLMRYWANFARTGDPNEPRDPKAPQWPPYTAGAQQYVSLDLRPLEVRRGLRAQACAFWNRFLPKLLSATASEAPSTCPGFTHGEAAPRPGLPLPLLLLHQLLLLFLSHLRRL
Protocol: (§1) The biochemical analysis of the inhibitory ability of the drugs against AChE and BChE was performed using a microplate modification of the Ellman method. The following reagents were used: 5,5′-dithio-bis-2-nitrobenzoic acid (DTNB, Sigma-Aldrich, St. Louis, MO, USA), acetylthiocholine (ATCh, Sigma-Aldrich), butyrylthiocholine (BTCh, Sigma-Aldrich), human erythrocyte AChE (Biomed, Auckland, New Zealand), human plasma BChE (Mechnikov Scientific Research Institute of Vaccines and Serums, St. Petersburg, Russia), phosphate-buffered saline (PBS; pH 7.2; Biolot, […]) and distilled water (pH 5.97, Biolot).
(§2) AChE and BChE were dissolved in PBS to obtain solutions of 1 mg/mL. Due to its high activity, human BChE was used at a 1:30 dilution. Solutions of the studied compounds were prepared with serial dilutions; their concentration in the reaction mixture was in a range from 0 to 300 μM. Double-distilled water, ethanol and dimethyl sulfoxide (DMSO, up to 15% of the total solvent volume) were used as solvents. When using DMSO or ethanol, an additional control was performed to assess the effect of the solvent itself. Protein (AChE of BChE) was incubated for 5 min at 37 °C and then the coloring solution was added, which contained a 2 mM freshly prepared DTNB solution and the substrate (ATCh/BTCh) in the concentration range of 200–800 μM. The kinetics were recorded for 15 min at 37 °C at a wavelength of 405 nm. Activity (μM × min^−1) was calculated using the molar extinction coefficient 0.01415 μmol^−1 × cm^−1: (V/ε × l × v) × (ΔE/Δt), where V is the volume of the analyzed mixture (μL); v is the volume of the enzyme solution (μL); ΔE/Δt is the change in extinction in 1 min; l is the thickness of the absorbing layer (cm); and ε is the coefficient of molar extinction of […]. Each measurement was repeated three times.
(§3) The type of inhibition was evaluated using Lineweaver–Burk plots. The dissociation constant of the enzyme-inhibitor complex (Ki), the maximum rate (Vmax) and thermodynamic cooperativity factor α were calculated using the Graphpad Prism 8.0 program (GraphPad Software Inc., San Diego, CA, USA) according to the model “enzymatic kinetics-inhibition—type of inhibition”.

human BChE = target: T2, human BChE (Homo sapiens, UniProt P06276); assay: Inhibition of human plasma BChE, microplate Ellman method; type: biochemical; conditions: for Type of Inhibition: human BChE, Lineweaver–Burk plots; for Ki: human plasma BChE (1:30 dilution), BTCh substrate, 37 °C
T2 construct: human plasma BChE (Mechnikov Scientific Research Institute of Vaccines and Serums, St. Petersburg, Russia); purchased Mechnikov Scientific Research Institute of Vaccines and Serums, St. Petersburg, Russia; host or cells: human plasma (natural source)
T2 sequence (P06276 29-602): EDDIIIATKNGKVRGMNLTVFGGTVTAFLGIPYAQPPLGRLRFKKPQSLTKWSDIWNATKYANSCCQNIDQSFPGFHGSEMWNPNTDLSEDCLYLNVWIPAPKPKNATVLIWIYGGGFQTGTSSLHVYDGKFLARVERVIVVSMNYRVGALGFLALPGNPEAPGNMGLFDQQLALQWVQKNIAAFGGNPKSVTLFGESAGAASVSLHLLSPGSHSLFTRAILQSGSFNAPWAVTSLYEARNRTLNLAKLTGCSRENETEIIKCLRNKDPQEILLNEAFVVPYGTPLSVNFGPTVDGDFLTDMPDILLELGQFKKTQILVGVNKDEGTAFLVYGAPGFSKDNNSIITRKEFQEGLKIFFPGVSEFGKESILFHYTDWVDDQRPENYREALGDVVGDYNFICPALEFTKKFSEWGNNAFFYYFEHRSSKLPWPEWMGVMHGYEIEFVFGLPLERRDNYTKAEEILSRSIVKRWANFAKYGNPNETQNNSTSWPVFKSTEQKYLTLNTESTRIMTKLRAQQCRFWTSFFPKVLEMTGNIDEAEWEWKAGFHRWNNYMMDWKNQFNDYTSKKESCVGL
Protocol: as §1, §2, §3

5-HT4R = conditions: read-out: EC50 relative to 5-HT4R; cited from earlier work
[1] = human erythrocyte AChE, ATCh substrate, 37 °C, read-out: Ki

Compound | Type of Inhibition (human AChE) | thermodynamic cooperativity factor α (human AChE) | Ki (human AChE; [1]) [µM] | Type of Inhibition (human BChE) | Ki (human BChE; read-out: Ki) [µM] | EC50 (5-HT4R) [µM] | Ki (human BChE) | Ki (human AChE) [µM] | AChE inhibition less effective than compound 24 (ratio of Ki) (human AChE; compound 13 vs compound 24) [times]
CC(C)n1c(=O)n(C(=O)NC2CC3CCC(C2)N3C)c2cc(C(F)(F)F)ccc21 (stereo not drawn) [Compound 16] | mixed | 5.1 | 31 | competitive | 21.3 | – | – | – | –
CC(C)n1c(=O)n(C(=O)NC2CC3CCC(C2)N3C)c2ccccc21 (stereo not drawn) [Compound 15, reference compound] | mixed | 6.6 | 127 | competitive | 9.7 | 0.018 | – | – | –
CN(C)CCNC(=O)n1c(=O)n(C2CC2)c2ccccc21 [Compound 28] | mixed | 12.6 | 138 | non-competitive | 28.1 | – | – | – | –
CC(C)n1c(=O)n(C(=O)N2CCN(C(c3ccccc3)c3ccc(Cl)cc3)CC2)c2ccccc21 (stereo not drawn) [Compound 24] | non-competitive | – | 0.13 | no inhibition | – | – | no inhibitory effect; also recorded: did not demonstrate inhibitory properties; also recorded: no inhibition | – | –
CCN(CC)CCNC(=O)n1c(=O)n(C(C)C)c2ccc(C(F)(F)F)cc21 [Compound 23] | mixed | 3.1 | 60.5 | non-competitive | 4.5 | – | – | – | –
CCN(CC)CCNC(=O)n1c(=O)n(C(C)C)c2ccccc21 [Compound 22] | strictly competitive | – | 97.1 | competitive | 15.2 | – | – | – | –
CCN(CC)CCNC(=O)n1c(=O)n(C2CC2)c2ccccc21 [Compound 27] | mixed | 10.9 | 132 | competitive | 16.2 | – | – | – | –
CCN(CC)CCNC(=O)n1c(=O)n(C(C)(C)C)c2ccccc21.Cl [Compound 13, N-[2-(diethylamino)ethyl]-2-oxo-3-(tert-butyl)-2,3-dihydro-1H-benzimidazole-1-carboxamide hydrochloride] | strictly competitive | – | – | non-competitive | 1.7 | – | – | 36.1 | ~300
